Experimental data: patent US9980963B2, “Treatment of cancer with dihydropyrazino-pyrazines” (Signal Pharmaceuticals, LLC, priority 2013, dated 2018)
“Also recorded” adds a separate entry of the source.

Experiments:
Assay type in all cases: cell-based, human
Wildtype CLL cells = test: Compound toxicity assay for CLL patient cells (wildtype); details: FIG. 1A; for sensitivity of wildtype CLL cells to the compound: single agent, feeder layer of CD40 ligand-expressing NIH 3T3 cells
del(11q) CLL cells = test: Compound toxicity assay for CLL patient cells (del(11q)); details: single agent; feeder layer of CD40 ligand-expressing NIH 3T3 cells; FIG. 1B
IGVH mutated CLL cells = test: CLL patient cells apoptosis assay (DioC6/PI); details: 48 hours; FIGS. 2A, E
Excerpt: (§1) CLL Patient Cells Apoptosis Assay. Patient material ([…] blood) was obtained from CLL patients (diagnosed according to the NCI-WG guidelines) after routine follow-up or diagnostic procedures at the department of hematology of the Academic Medical Center Amsterdam. Peripheral blood mononuclear cells (PBMCs) were isolated by Ficoll density gradient centrifugation and stored in liquid nitrogen, as cell suspension in heat-inactivated fetal calf serum containing 10% DMSO. During all in vitro experiments, cells were maintained in culture medium: Iscove's modified Dulbecco medium supplemented with 10% heat-inactivated FCS, 100 U/mL penicillin, […] gentamycin and 0.00036% β-mercaptoethanol. All samples contained at least 90% CD5+/CD19+ cells as assessed via flow cytometry. B-CLL cells were thawed and diluted to a concentration of 1.10^6 cells/mL in IMDM plus supplements as described above. […] Apoptosis was analyzed by evaluation of mitochondrial membrane potential with DioC6 (Molecular probes). Cells were incubated with 10 nM DioC6 for 30 minutes at 37° C. and 20 μg/mL propidium iodide was added to measure cell death. Expression of DioC6 was determined using the FACSCalibur flow cytometer and CellQuest software was used for data acquisition. Data were analyzed with FlowJo software (TreeStar, San Carlos, Calif., USA).

IGVH unmutated CLL cells = test: CLL patient cells apoptosis assay (DioC6/PI); details: 48 hours; FIGS. 2B, F
Excerpt: as §1

P53 mutated CLL cells = test: CLL patient cells apoptosis assay (DioC6/PI); details: 48 hours, FIGS. 2C
Excerpt: as §1

ATM mutated CLL cells = test: CLL patient cells apoptosis assay (DioC6/PI); details: 48 hours; FIGS. 2D, G
Excerpt: Patient material (pheripheral blood) was obtained from CLL patients (diagnosed according to the NCI-WG guidelines) after routine follow-up or diagnostic procedures at the department of hematology of the Academic Medical Center Amsterdam. Peripheral blood mononuclear cells (PBMCs) were isolated by Ficoll density gradient centrifugation and stored in liquid nitrogen, as cell suspension in heat-inactivated fetal calf serum containing 10% DMSO. During all in vitro experiments, cells were maintained in culture medium: Iscove's modified Dulbecco medium supplemented with 10% heat-inactivated FCS, 100 U/mL penicillin, 100 m/mL gentamycin and 0.00036% β-mercaptoethanol. All samples contained at least 90% CD5+/CD19+ cells as assessed via flow cytometry. […] Apoptosis was analyzed by evaluation of mitochondrial membrane potential with DioC6 (Molecular probes). Cells were incubated with 10 nM DioC6 for 30 minutes at 37° C. and 20 μg/mL propidium iodide was added to measure cell death. Expression of DioC6 was determined using the FACSCalibur flow cytometer and CellQuest software was used for data acquisition.

CLL cells [1] = test: Detection of apoptosis with QvD or NAC co-treatment (DiOC6/PI); details: 5 mM NAC, 48 hours
Protocol: Apoptosis levels were measured by Flow using DiOC6/PI staining and specific apoptosis was calculated. Results are shown as mean±SEM.
Where indicated, CLL cells were co-cultured in the presence/absence of 20 μM of the pancaspase inhibitor QvD or 5 mM N-acetyl-L-cysteine (NAC). CLL cell viability was measured by analysis of mitochondrial transmembrane potential by 3,3-dihexyloxocarbocyanine iodine (DiOC6; Invitrogen/Molecular Probes) and cell membrane permeability to propidium iodide (PI; Sigma Aldrich) using the FACS Calibur flow cytometer. Specific apoptosis is defined as [% cell death in drug treated cells]−[% cell death in medium control]/[% viable cells medium control]×100 using the Graphpad Prism software (Graphpad Prism 5.0, La Jolla, USA).

[2] = tested on: mRNA of pro-/anti-apoptotic mediators in CLL cells; test: RT-MLPA of pro- and anti-apoptotic regulators; details: 1 μM, 24 hours
Protocol: Reverse Transcription-Multiplex Ligation-Dependent Probe Amplification Assay.
CLL Cells were harvested per stimulation, washed with PBS, resuspended in RNA lysis buffer (Qiagen, Venlo, the Netherlands) and stored at −80° C. RNA was isolated using the GenElute Mammalian Total RNA Miniprep kit (Sigma-aldrich). The concentration and purity of the RNA were determined with a NanoDrop spectrophotometer ND-1000 (NanoDrop Technologies, Willington, USA). Reverse transcription-multiplex ligation-dependent probe amplification assay (RT-MLPA) procedure was performed as described previously by Eldering et al. Nucleic Acids Res. 2003; 31:e153. In brief, 40-60 ng of total RNA of samples were first reverse transcribed using a gene-specific probe mix (R016-X2). The resulting cDNA was annealed overnight at 60° C. to the MLPA probes. The annealed oligonucleotides were covalently linked by Ligase-65 (MRC, Amsterdam, the Netherlands) at 54° C. […] Results were analyzed using the programs Genescan analysis and Genotypes (Applied Biosystems). Data was further analyzed with Microsoft Excel Spreadsheet software. Normalization was performed by setting the sum of all data per sample at 100% and individual peaks were calculated relative to the 100% value.

primary CLL cells = test: BCR-mediated adhesion of primary CLL cells to fibronectin; details: 1 μM pretreatment; IgVH unmutated samples; n=5
Protocol: Graphs are presented as normalized mean±SEM (100%=stimulated cells without inhibitors). *0.01≤P<0.05; **0.001≤P<0.01 (paired one sample T test) (n=5). BCR-mediated adhesion of primary CLL cells (FIG. 4) was tested.

phospho-S6 = test: Western blot of mTOR pathway, unstimulated CLL cells; details: 1 μM, 2 hours
Protocol: (§2) Protein lysates were probed for phospho-S6 and actin for loading control. Blots from three representative CLL samples are shown, of a total of five analyzed. […] Blots were probed for p-Akt(Thr308), p-Akt (Ser473), p-S6, p-4EBP1 and actin for loading control. Blots from two representative CLL samples shown, of a total of four analyzed.
(§3) Western blot analysis was performed using standard techniques [Hallaert et al. Blood 2008(112):5141-5149]. Samples (50 μg protein) were separated by 13% SDS-PAGE gel electrophoresis. Membranes were probed with anti-p-S6, p-4EBP1, p-Akt (Thr308), p-Akt (Ser473) (Cell Signaling), Bim (Stressgen Bioreagents Canada) and antiserum to β-actin (Santa Cruz Biotechnology) as loading control. Blots were subsequently incubated with IRDye 680 or 800 labelled secondary antibodies for 1 hour. Odyssey Imager (Li-Cor Biosciences) was used as a detection method according to the manufacturer's protocol. For the p-DNA-PK western blot, cells were lysed in RIPA sample buffer and sonificated. Samples (50 μg protein) were separated by mini protean TGX gels (Biorad). Transfer onto Immobilon-FL transfer membrane (Millipore) in 1× transfer buffer, 20% MeOH at 30 volts at 4° C. overnight. The following antibodies were used: p-DNA-PK (Ser2056) (Abcam), KAP (TIF1β), phosphorylated-KAP (phospho-TIF1β-ser824; Cell Signalling) and β-actin (Santa Cruz).

[3] = tested on: p-S6, p-4EBP1, p-Akt (Ser473); test: Western blot of mTOR pathway, CD40L-activated CLL cells; details: 100, 500 or 1000 nM, 72 hours
Protocol: as §2, §3

CLL cells [4] = test: Blast cell formation of CD40L-cocultured CLL cells (FACS); details: CD40L coculture; 1 μM, 3 days
Protocol: FIG. 6A and FIG. 6B) Blast cell formation was assessed by FACS analysis and results are shown as mean±SEM. *0.01≤P<0.05; **0.001≤P<0.01; ***P<0.001 (paired one sample T test) FIG. 6C) CLL cells were examined for surface expression of CD95 (Fas), CD44, CD54 (ICAM) and CD58 (LFA-3) by flow cytometry. Results are shown as mean±SEM (n=6).

[5] = tested on: CD95, CD54, CD58, CD44 on CLL cells; test: Expression of cell surface markers (flow cytometry); details: CD40L coculture; 1 μM, 3 days
Protocol: Expression of Cell Surface Markers.
Cells were washed and resuspended in staining media (phosphate-buffered saline (PBS) containing 0.5% (wt/vol) bovine serum albumin (BSA)). For analysis of expression of cell surface markers, different combinations of antibodies were used. CD54-PE and CD95-FITC purchased from Pharmingen. CD44-Alexa Fluor 700 was obtained from eBiosciences and CD58 from Immunotech. After incubation for 30 minutes at 4° C. protected from light, cells were washed twice in PBS/0.5% BSA and expression of cell surface markers was analyzed using FACSCalibur flow cytometry.

CLL cells [6] = test: CD40L coculture survival and fludarabine sensitivity assay (DiOC6/PI)
Protocol: (§4) FIG. 7A) Apoptosis was assessed by DiOC6/PI staining and results are shown as mean±SEM (n=7). *0.01≤P<0.05; **0.001≤P<<0.01; ***P<0.001 (paired T test). FIG. 7B) After 3 days, fludarabine sensitivity assay was performed. Apoptosis was assessed by DiOC6/PI staining and specific apoptosis are shown as mean±SEM (n=7). *0.01≤P<0.05; **0.001≤P<0.01 (paired T test) FIG. 7C) mRNA levels of pro-/anti-apoptotic mediators in CLL cells were measured by RT-MLPA (n=6). FIG. 7D) Protein lysates were probed for Bim and actin for loading control. Blots from two representative CLL samples shown, of a total of four analyzed.
CD40 stimulation inhibits spontaneous cell death as previously reported [Burger et al. Blood 2009(114):2560-2561]. Lymphocytes of CLL patients were stimulated by coculture with NIH3T3 fibroblasts stably transfected with human CD40L or negative control plasmid (3T3) as described before [Pascutti et al Blood 2013 2013; 122(17):3010-9]. […] After 72 hours of culture, CLL cells were detached and either used for flowcytrometic analyses or subsequently incubated with or without Fludarabine (Sigma) for an additional 48 hours. CLL cell viability was measured as by DiOC6/PI staining as described above. […] CD40L stimulation induces resistance to cytotoxic agents, including fludarabine [Kater et al. Brit J Haematology 2004; 127:404-415].

BIM and BID mRNA = test: RT-MLPA in CD40L triggered CLL cells; details: 1 μM, 3 days
Protocol: as §4

Bim = Bim protein Western blot in CD40L-cocultured CLL cells; details: CD40L coculture; 1 μM, 3 days
Protocol: as §4
as §3, with “Transfer onto Immobilon-FL transfer membrane (Millipore) in 1× transfer buffer, 20% MeOH at 30 volts at 4° C. overnight. The following antibodies were used: p-DNA-PK (Ser2056) (Abcam), KAP (TIF1β), phosphorylated-KAP (phospho-TIF1β-ser824; Cell Signalling) and β-actin (Santa Cruz).” left out

CLL cells [7] = test: CFSE proliferation assay of CLL cells on 3T40L cells with IL-21; details: CD40L + IL-21 (25 ng/ml); 1 μM, 4 days
Protocol: After 4 days, CFSE was measured by FACS. […] FIG. 8B) Division index was calculated with FlowJo program. […] PBMC (1.0×10^7/mL) were labelled with 0.5 μM carboxyfluorescein diacetate succinimidyl ester (CFSE, Molecular Probes) as described before [Pascutti et al Blood 2013 2013; 122(17):3010-9]. […] After 4 days, proliferation was assessed in a FACS Canto (BD Biosciences) and analyzed with FlowJosoftware (TreeStar, Ashland, Oreg.).

In the case of `CCN1C(=O)CNc2ncc(-c3ccc(-c4nc[nH]n4)nc3C)nc21` [Compound 1, 1-ethyl-7-(2-methyl-6-(1H-1,2,4-triazol-3-yl)pyridin-3-yl)-3,4-dihydropyrazino[2,3-b]pyrazin-2(1H)-one], the “enhancement of response by addition of Compound 1 to the etoposide regimen” value (Wildtype CLL cells; combination with etoposide, ATM-proficient CLL cells) is reported as “did not significantly enhance”, the “sensitivity of wildtype CLL cells to the compound” value (Wildtype CLL cells) is reported as “resistant” and the “sensitivity of del(11q) CLL cells to the compound” value (del(11q) CLL cells) is reported as “exclusively sensitive”. For the same molecule, the induction of apoptosis (IGVH mutated CLL cells) was “induced apoptosis”, the induction of apoptosis (IGVH unmutated CLL cells) was “induced apoptosis” and the induction of apoptosis (P53 mutated CLL cells) was “induced apoptosis”. The induction of apoptosis (ATM mutated CLL cells) was “induced apoptosis”, the “ROS dependence of cell death: effect of NAC co-treatment on cell death” value (CLL cells [1]) was “did not result in inhibition” and the “levels of pro- and anti-apoptotic regulators on RNA level, including p53-target genes” value [2] was “not altered”. For the same molecule, the “anti-IgM-stimulated integrin-mediated adhesion to fibronectin” value (primary CLL cells) was “strongly inhibited”, the “phosphorylation of S6” value (phospho-S6) was “completely blocked” and the p-4EBP1 upregulation [3] was “completely blocked”. For the same molecule, the “p-Akt (Ser473) upregulation” value [3] was “completely blocked”, the p-S6 upregulation [3] was “completely blocked” and the “blast-like appearance / blast cell formation” value (CLL cells [4]) was “completely blocked”. For the same molecule, the “3T40L-induced upregulation of immune accessory molecules (CD95, CD54, CD58, CD44)” value [5] was “significant inhibition”, the fludarabine sensitivity (CLL cells [6]; 72 hours CD40L coculture, then fludarabine 48 hours) was “partly reversed” and the CD40L-induced survival (CLL cells [6]; CD40L coculture, 1 μM, 3 days) was “inhibited”. The CD40-induced fludarabine resistance (CLL cells [6]; co-treatment with Compound 1 during CD40L coculture, then fludarabine 48 hours) was “completely abolished”, the “CD40-mediated inhibition of BIM (RNA)” value (BIM and BID mRNA) was “blocked” and the “upregulation of BID (RNA)” value (BIM and BID mRNA) was “decreased”. For the same molecule, the “CD40-mediated decreased expression of Bim protein” value (Bim) was “blocked” and the “proliferation of CLL cells” value (CLL cells [7]) was “completely blocks; also recorded: fully blocked”.

With `COc1cc([C@@H]2c3cc4c(cc3[C@@H](O[C@@H]3O[C@@H]5CO[C@@H](C)O[C@H]5[C@H](O)[C@H]3O)[C@H]3COC(=O)[C@H]23)OCO4)cc(OC)c1O` [etoposide, reference compound] the “sensitivity of wildtype CLL cells to the compound” value (Wildtype CLL cells) was “highly sensitive” and the “sensitivity of del(11q) CLL cells to the compound” value (del(11q) CLL cells) was “largely resistant”.
